Five molecules from ChEMBL document CHEMBL1629443 (J Med Chem, 2010) can be followed below.

Assay [1] in a line: Inhibition of HDAC assessed as histone H3K'9+14 acetylation levels by cell based histone H3 hyperacetylation assay.
The target of assay [2] is Platelet-derived growth factor receptor beta (Homo sapiens, UniProt P09619). The assay is described as follows: Inhibition of PDGFRbeta by flash plate based radioactive enzyme assay.
In assay [3] the target is Receptor tyrosine-protein kinase erbB-2 (Homo sapiens, UniProt P04626). The assay is described as follows: Inhibition of HER2 by flash plate based radioactive enzyme assay.
The target of assay [4] is Histone deacetylase (Homo sapiens) (UniProt Q13547+O15379+Q9UBN7+Q92769+Q9UQL6+Q8WUI4+Q9BY41+Q96DB2+P56524+Q9UKV0+Q969S8). The note with it: CAL-27, 1 uM.
Description: Inhibition of HADC in human CAL27 cells overexpressing EGFR assessed as effect on histone H2 acetylation at 1 uM after 16 hrs by Western blot
A short description of assay [5]: Inhibition of PKA by flash plate based radioactive enzyme assay.
Assay [6] deals with Serine/threonine-protein kinase PLK1 (Homo sapiens, UniProt P53350). The experiment in a line: Inhibition of PLK1 by flash plate based radioactive enzyme assay.
Sequence of Serine/threonine-protein kinase PLK1 (P53350 whole entry): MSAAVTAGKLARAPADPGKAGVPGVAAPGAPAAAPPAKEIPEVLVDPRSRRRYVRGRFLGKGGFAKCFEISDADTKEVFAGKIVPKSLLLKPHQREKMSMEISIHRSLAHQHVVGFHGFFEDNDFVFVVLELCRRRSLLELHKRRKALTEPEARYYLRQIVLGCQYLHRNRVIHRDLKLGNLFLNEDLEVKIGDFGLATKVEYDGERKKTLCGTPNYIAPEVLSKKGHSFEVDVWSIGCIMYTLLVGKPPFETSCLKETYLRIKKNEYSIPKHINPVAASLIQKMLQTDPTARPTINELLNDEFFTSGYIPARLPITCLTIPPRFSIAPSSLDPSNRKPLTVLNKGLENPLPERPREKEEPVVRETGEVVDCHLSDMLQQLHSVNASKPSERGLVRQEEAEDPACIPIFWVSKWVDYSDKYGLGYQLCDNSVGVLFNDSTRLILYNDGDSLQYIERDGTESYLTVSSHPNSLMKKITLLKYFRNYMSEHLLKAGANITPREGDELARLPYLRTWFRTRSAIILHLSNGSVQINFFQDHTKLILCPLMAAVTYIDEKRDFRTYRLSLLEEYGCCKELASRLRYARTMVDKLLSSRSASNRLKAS
The next assay has as its system HeLa. The assay is described as follows: Cytotoxicity against human HeLa cells overexpressing HDAC by resazurin dye reduction assay. In general terms: The colour change of resazurin is a common sign of viable cells or microbes.
The target in a further assay is Histone deacetylase 1 (Homo sapiens, UniProt Q13547). The assay is described as follows: Inhibition of human recombinant HDAC1 expressed in HEK293 cells. The format is cell-based.
Sequence of Histone deacetylase 1 (Q13547 whole entry): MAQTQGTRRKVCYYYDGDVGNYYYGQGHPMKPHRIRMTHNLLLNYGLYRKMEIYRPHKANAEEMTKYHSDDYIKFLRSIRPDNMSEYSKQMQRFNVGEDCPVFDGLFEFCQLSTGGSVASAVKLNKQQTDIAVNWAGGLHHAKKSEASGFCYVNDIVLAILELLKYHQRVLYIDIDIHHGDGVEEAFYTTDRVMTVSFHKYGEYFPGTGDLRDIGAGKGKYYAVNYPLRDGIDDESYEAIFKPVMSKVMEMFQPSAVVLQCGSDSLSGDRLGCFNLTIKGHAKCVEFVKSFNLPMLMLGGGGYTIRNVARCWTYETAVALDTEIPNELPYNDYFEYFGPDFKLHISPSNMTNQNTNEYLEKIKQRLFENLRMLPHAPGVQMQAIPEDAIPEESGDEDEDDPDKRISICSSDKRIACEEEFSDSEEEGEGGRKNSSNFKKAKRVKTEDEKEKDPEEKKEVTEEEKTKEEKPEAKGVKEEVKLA
The target of assay [7] is T1, Epidermal growth factor receptor (Homo sapiens, UniProt P00533). The experiment in a line: Inhibition of EGFR by flash plate based radioactive enzyme assay.
T1 sequence (P00533 whole entry): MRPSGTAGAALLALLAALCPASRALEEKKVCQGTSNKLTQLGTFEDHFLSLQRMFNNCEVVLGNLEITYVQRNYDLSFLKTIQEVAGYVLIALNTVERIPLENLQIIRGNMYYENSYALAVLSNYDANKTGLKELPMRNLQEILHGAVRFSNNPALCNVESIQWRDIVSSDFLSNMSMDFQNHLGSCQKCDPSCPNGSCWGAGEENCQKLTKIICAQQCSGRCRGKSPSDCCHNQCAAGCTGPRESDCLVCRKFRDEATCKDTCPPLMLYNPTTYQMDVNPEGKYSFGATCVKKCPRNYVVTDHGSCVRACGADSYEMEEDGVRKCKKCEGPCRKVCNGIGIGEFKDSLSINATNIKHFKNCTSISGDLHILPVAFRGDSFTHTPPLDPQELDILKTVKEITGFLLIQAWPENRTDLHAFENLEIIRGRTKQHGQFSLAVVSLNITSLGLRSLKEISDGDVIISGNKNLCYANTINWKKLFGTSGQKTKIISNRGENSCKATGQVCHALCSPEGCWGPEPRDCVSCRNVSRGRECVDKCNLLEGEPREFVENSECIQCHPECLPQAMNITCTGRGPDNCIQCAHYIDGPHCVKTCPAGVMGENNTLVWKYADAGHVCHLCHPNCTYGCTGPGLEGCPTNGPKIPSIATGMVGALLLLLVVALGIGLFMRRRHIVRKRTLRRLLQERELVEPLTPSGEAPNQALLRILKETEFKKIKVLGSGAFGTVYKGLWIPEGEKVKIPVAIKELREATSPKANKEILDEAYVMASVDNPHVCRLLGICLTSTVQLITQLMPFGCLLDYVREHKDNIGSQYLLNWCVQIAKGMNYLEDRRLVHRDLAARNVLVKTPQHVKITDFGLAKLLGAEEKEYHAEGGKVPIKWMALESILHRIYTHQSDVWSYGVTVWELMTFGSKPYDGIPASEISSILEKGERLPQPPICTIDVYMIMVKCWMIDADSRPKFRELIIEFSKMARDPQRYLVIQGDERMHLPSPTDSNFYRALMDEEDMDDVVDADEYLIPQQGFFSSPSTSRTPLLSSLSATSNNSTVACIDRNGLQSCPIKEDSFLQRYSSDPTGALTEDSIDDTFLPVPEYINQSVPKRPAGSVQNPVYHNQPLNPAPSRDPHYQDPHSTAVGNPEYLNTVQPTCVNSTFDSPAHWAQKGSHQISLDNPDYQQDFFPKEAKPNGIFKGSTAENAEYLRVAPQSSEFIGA
For assay [8], the target named is Cyclin-dependent kinase 2 (Homo sapiens, UniProt P24941). The assay is described as follows: Inhibition of CDK2 by flash plate based radioactive enzyme assay.
The next assay concerns A549. The assay is described as follows: Cytotoxicity against human A549 cells overexpressing HDAC by resazurin dye reduction assay.
A further assay concerns A-431. The assay is described as follows: Cytotoxicity against human A431 cells overexpressing EGFR by resazurin dye reduction assay.
The target in another assay is Insulin receptor (Homo sapiens, UniProt P06213). The experiment in a line: Inhibition of INSR by flash plate based radioactive enzyme assay.
Sequence of Insulin receptor (P06213 28-758 limits assumed): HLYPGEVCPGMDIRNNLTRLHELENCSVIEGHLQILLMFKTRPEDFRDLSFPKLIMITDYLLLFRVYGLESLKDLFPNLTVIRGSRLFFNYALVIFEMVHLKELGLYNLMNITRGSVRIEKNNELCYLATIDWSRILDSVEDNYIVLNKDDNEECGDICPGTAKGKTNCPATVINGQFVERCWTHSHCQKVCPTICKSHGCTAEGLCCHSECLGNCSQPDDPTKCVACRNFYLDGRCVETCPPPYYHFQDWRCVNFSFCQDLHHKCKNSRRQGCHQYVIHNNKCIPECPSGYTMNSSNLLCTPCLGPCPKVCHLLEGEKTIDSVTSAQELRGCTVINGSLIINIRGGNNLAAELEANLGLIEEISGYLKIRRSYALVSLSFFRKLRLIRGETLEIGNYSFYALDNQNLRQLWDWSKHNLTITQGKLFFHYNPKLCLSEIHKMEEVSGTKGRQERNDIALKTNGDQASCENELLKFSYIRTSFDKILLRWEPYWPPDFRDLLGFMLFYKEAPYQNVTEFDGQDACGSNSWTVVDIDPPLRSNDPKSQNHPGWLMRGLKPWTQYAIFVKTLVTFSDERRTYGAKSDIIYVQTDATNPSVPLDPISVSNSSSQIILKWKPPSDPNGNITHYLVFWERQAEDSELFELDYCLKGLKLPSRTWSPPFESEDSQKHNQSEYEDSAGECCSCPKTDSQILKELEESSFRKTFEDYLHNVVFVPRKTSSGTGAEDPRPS
Sequence of Insulin receptor (P06213 763-1382 limits assumed): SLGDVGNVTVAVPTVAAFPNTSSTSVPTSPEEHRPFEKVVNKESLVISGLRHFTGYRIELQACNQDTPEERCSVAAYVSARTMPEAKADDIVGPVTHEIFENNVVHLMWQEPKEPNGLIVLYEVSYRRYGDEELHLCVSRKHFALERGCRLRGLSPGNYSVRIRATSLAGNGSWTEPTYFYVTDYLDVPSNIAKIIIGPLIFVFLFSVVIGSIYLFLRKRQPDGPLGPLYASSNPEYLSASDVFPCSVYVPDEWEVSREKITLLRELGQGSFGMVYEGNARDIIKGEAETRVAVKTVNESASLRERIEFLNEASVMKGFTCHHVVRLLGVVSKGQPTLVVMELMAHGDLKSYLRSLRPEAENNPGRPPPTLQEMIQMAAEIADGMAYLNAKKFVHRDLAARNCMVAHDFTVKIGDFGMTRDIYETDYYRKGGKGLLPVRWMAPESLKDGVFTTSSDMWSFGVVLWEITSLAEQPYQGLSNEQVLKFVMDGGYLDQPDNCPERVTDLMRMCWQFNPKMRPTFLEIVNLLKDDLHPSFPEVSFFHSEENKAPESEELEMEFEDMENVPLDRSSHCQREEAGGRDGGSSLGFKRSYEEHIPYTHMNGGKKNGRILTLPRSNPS
Assay [9] has as its target T1, Epidermal growth factor receptor. The experiment in a line: Inhibition of EGF-induced EGFR phosphorylation in human CAL27 cells overexpressing EGFR after 16 hrs by Western blot. The format is cell-based, CAL-27. (In western blotting, separated proteins are transferred to a membrane and probed.)
For a further assay, the system named is SK-OV-3. The experiment in a line: Cytotoxicity against human SKOV3 cells overexpressing HER2 by resazurin dye reduction assay. The format is functional, cell-based.
In the next assay the test system is CAL-27. The experiment in a line: Cytotoxicity against human CAL27 cells overexpressing EGFR by resazurin dye reduction assay.
A further assay concerns the target T2, Histone deacetylase 8 (Homo sapiens, UniProt Q9BY41).
T2 sequence (Q9BY41 whole entry): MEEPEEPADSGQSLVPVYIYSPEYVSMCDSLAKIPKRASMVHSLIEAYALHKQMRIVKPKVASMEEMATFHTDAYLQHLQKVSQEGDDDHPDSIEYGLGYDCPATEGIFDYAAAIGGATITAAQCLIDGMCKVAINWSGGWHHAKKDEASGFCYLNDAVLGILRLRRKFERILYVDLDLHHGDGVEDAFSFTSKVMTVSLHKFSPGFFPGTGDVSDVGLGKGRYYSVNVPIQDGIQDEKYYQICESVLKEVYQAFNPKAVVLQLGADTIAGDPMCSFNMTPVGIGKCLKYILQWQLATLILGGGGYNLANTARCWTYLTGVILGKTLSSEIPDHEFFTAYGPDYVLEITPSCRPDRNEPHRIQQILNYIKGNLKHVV
The assay is described as follows: Inhibition of Flag tagged human recombinant HDAC8 expressed in Sf21 cells.

In assay [10] the target is Tyrosine-protein kinase ABL1 (Homo sapiens, UniProt P00519). The experiment in a line: Inhibition of ABL1 by flash plate based radioactive enzyme assay.
Sequence of Tyrosine-protein kinase ABL1 (P00519 whole entry): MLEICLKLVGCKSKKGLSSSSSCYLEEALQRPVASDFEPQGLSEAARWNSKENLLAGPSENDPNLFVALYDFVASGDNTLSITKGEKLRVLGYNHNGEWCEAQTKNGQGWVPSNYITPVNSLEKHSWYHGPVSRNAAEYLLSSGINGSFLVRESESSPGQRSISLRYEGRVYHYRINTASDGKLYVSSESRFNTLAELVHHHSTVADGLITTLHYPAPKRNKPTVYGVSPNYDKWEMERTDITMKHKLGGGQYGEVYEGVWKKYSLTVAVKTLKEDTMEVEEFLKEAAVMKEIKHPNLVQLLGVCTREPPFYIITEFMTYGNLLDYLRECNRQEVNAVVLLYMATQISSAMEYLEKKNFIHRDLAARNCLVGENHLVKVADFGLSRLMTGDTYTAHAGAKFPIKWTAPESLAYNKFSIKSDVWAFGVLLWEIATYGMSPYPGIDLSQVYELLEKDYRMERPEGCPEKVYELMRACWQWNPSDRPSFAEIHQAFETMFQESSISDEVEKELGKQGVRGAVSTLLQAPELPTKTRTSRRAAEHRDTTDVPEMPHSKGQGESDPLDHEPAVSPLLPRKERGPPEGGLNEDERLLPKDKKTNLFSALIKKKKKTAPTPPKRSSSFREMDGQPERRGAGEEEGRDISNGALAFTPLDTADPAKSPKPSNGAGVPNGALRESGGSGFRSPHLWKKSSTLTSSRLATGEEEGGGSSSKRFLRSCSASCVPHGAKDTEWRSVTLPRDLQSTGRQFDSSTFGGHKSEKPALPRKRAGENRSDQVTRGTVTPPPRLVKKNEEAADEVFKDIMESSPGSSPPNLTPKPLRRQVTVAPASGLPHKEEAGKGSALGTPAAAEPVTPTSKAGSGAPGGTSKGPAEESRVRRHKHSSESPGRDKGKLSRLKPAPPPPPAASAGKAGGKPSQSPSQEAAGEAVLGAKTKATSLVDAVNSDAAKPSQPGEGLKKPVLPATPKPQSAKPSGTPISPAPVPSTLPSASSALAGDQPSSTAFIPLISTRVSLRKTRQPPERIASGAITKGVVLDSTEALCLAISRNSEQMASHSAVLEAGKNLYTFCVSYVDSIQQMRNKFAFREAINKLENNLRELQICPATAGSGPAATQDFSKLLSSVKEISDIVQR
The target in assay [11] is T3, Protein deacetylase HDAC6 (Homo sapiens, UniProt Q9UBN7).
T3 sequence (Q9UBN7 whole entry): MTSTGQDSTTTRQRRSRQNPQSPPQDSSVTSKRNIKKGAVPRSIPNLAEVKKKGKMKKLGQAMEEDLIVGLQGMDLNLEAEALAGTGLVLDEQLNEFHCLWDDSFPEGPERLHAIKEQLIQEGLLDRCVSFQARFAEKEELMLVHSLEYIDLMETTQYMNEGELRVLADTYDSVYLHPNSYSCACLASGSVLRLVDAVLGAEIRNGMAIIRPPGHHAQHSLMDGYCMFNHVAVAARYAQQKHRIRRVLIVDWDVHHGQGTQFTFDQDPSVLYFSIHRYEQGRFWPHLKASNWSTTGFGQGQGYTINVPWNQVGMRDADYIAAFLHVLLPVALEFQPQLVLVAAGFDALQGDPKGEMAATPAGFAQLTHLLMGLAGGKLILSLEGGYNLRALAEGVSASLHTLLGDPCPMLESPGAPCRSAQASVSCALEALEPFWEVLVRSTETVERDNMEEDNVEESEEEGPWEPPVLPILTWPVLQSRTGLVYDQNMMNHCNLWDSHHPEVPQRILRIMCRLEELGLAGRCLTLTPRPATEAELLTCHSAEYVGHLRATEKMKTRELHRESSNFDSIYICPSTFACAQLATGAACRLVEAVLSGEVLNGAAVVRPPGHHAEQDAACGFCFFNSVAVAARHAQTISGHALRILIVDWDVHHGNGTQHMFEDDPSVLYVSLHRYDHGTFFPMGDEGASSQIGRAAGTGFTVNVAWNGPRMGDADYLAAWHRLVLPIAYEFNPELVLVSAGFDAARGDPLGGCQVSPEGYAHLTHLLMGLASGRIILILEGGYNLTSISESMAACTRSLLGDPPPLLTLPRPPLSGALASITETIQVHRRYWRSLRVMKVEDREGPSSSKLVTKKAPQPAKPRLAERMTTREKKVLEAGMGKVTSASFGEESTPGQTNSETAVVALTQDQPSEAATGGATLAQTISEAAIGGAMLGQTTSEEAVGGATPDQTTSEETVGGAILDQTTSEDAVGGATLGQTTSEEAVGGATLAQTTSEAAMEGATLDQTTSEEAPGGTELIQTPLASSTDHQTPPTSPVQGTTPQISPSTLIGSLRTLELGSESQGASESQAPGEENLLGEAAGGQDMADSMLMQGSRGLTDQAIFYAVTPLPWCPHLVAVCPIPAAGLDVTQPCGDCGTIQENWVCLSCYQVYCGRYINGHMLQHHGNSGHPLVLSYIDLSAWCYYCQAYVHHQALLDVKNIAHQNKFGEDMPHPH
The assay is described as follows: (§1) Inhibition of human recombinant HDAC6 expressed in HEK293 cells. The format is cell-based.

Another assay relates to SK-BR-3. The experiment in a line: Cytotoxicity against human SKBR3 cells overexpressing HER2 by resazurin dye reduction assay.
The next assay deals with Histone deacetylase. The experiment in a line: Inhibition of HDAC in human HeLa cell nuclear extracts. The format is cell-based.
Another assay deals with Histone deacetylase 3 (Homo sapiens, UniProt O15379). The assay is described as follows: Inhibition of Flag tagged human recombinant HDAC3 expressed in Sf21 cells coexpressing SMRT DAD domain.
The target of assay [12] is Protein deacetylase HDAC6 (Homo sapiens) (UniProt Q9UBN7). The assay is described as §1. The format is cell-based.

Each structure is given as a SMILES string. Calls of active or inactive are those of the source. No cut-off for these calls is given here.

For orientation: EC50 means the concentration giving half of the maximal effect. For orientation: IC50 means the concentration needed to halve the response being measured. The Emax is the maximal effect, on the per cent scale that the assay sets.

Turning to `O=C(/C=C/c1cccc(-c2ccc3ncnc(Nc4ccc(OCc5cccc(F)c5)c(Cl)c4)c3c2)c1)NO`, the EC50 in [1] was 4.7 µM. Further, the IC50 in assay [2] is 2.5 µM; in assay [3], 0.011 µM; in assay [5], greater than 100 µM; in assay [6], 6.8 µM; in the assay with HeLa it was 0.97 µM; on Histone deacetylase 1, 0.035 µM. In addition, the IC50 is 0.018 µM in [7]; 0.92 µM in assay [8]; 1.2 µM in the assay with A549; 0.72 µM with A-431; 3.6 µM at Insulin receptor; 0.5 µM in [9]. The IC50 turned out to be 1 µM in the assay with SK-OV-3; 0.59 µM in the assay with CAL-27; 0.63 µM on Histone deacetylase 8; 5.3 µM in [10]; 0.086 µM in assay [11]; 0.35 µM with SK-BR-3. For the same molecule, the values for the IC50 against Histone deacetylase and at Histone deacetylase 3 were 0.047 µM and 0.066 µM, respectively. Besides, the inhibition entry in assay [4] is “Active”.

As to `O=C(/C=C/c1ccc(-c2ccc3ncnc(Nc4ccc(OCc5cccc(F)c5)c(Cl)c4)c3c2)s1)NO`, the EC50 in [1] was greater than 100 µM. The 50% inhibitory concentration (IC50) came out at 0.0035 µM in assay [3]; 35 µM in [5]; 2.7 µM in assay [6]; 0.0048 µM in assay [7]; 0.44 µM in assay [8]; 2.6 µM with A549. The IC50 came out at 0.73 µM in the assay with A-431; 1.9 µM on Insulin receptor; 4 µM with SK-OV-3; 0.66 µM with CAL-27; 2.7 µM in [10]. Moreover, in [12], the Emax came out at 70%.

With `O=C(/C=C/c1ccc(-c2ccc3ncnc(Nc4ccc(OCc5cccc(F)c5)c(Cl)c4)c3c2)o1)NO`, the 50% effective concentration (EC50) in [1] turned out to be 3.65 µM. In addition, the IC50 in assay [2] was 3.3 µM; in [3], 0.0041 µM; in assay [5], 120 µM; in [6], 12 µM; with HeLa, 3.2 µM; on Histone deacetylase 1 it was 0.61 µM. For the same molecule, the IC50 was 0.0025 µM in [7]; 0.44 µM in assay [8]; 3.9 µM in the assay on A549; 1.9 µM with A-431; 7.34 µM at Insulin receptor; less than 0.032 µM in assay [9]. The IC50 in the assay with SK-OV-3 is 2.1 µM; in the assay with CAL-27, 0.82 µM; at Histone deacetylase 8, 11 µM; in assay [10], 7.7 µM; in [11], 0.23 µM; with SK-BR-3, 0.51 µM. In addition, the IC50 against Histone deacetylase was 0.63 µM; at Histone deacetylase 3, 6.3 µM.

For `Nc1ccccc1NC(=O)/C=C/c1ccc(-c2ccc3ncnc(Nc4ccc(OCc5cccc(F)c5)c(Cl)c4)c3c2)cc1`, in assay [1], the EC50 is greater than 100 µM. Also, the IC50 was 2.7 µM in assay [2]; 0.015 µM in assay [3]; greater than 100 µM in [5]; 6.2 µM in [6]; 3.1 µM in the assay on HeLa; greater than 100 µM on Histone deacetylase 1. Besides, the IC50 is 0.029 µM in [7]; 1.2 µM in assay [8]; 15 µM with A549; 3.6 µM in the assay with A-431; 3 µM on Insulin receptor; 16 µM with SK-OV-3. Moreover, the IC50 in the assay on CAL-27 is 4 µM; on Histone deacetylase 8, greater than 32 µM; in [10] it was 4.9 µM; in [11], greater than 32 µM; with SK-BR-3 it was 17 µM; at Histone deacetylase it was greater than 32 µM. For the same molecule, at Histone deacetylase 3, the IC50 was greater than 32 µM.

`Nc1ccccc1NC(=O)c1ccc(-c2ccc3ncnc(Nc4ccc(OCc5cccc(F)c5)c(Cl)c4)c3c2)s1`: the EC50 in assay [1] is greater than 100 µM. Also, the IC50 in assay [2] is 2.3 µM; in assay [3], 0.0049 µM; in [5], greater than 100 µM; in [6], 5.6 µM; in the assay with HeLa, 3.7 µM; on Histone deacetylase 1, greater than 50 µM. The IC50 in assay [7] stood at 0.0028 µM; in [8], 2.1 µM; with A549, 9.1 µM; in the assay on A-431, 2.4 µM; on Insulin receptor, 2.5 µM; in the assay on SK-OV-3 it was 3.9 µM. Further, the IC50 was 0.71 µM with CAL-27; greater than 32 µM at Histone deacetylase 8; 6 µM in [10]; greater than 10 µM in assay [11]; 0.62 µM in the assay with SK-BR-3; greater than 10 µM against Histone deacetylase. In addition, the half-inhibitory concentration (IC50) on Histone deacetylase 3 was greater than 32 µM.
